How the values were obtained:
colonic tissues = details: mice with acute colitis, intraperitoneal injection, Cy5.5 conjugate
Method: The number of ITGA6+ or ITGB1+ cells was analyzed by FACS.
Mice were intravenously injected with a lentivirus expressing nonspecific shRNA (shNS) or shRNA specific for ITGA6 (sh ITGA6) or ITGB1 (shITGB1) 2 times and then orally administered with DSS (Acute or chronic Colitis) and rCT-NAMPT, and then experiments were performed.
Next, to evaluate the specificity of rCT-NAMPT, ITGA6- or ITGB1-knockdown mice were generated through sh-Lentiviral transduction. The mice were treated with DSS and administered rCT-NAMPT/Cy5.5 via intraperitoneal injection on day 6.

[1] = system: DSS-induced acute colitis; assay: DSS-induced acute colitis mouse model (Lenti-shNS or Lenti-shITG transduced); type: in vivo, C57BL/6 mice; details: Lenti-shNS-transduced mice
Method: FIG. 8 confirms an effect of rCT-NAMPT in mice with DSS-induced acute colitis. Specifically, (A) an experimental plan for an acute colitis model treated with rCT-NAMPT (50 μg/kg) and 3% DSS after introduction of Lenti-shNS or Lenti-shITG virus (left) and the survival rates of mice monitored for 12 days (right). Mortality was measured with n=15 mice per group. Statistical differences between rVehicle treated animals were recorded (log-rank test). […] (B) confirms a change in body weight of the experimental animals during an experiment period in (A) above (n=8). (C) is a colitis score result of the experimental animals in (A) above. […] (H) Results of hematoxylin and eosin (H&E) staining of the colon (left) (n=10): Representative radiohistopathology scores were evaluated using rVehicle, rCT, or rCT-NAMPT in 3% DSS-treated mice as illustrated in techniques (Materials and Methods). Statistical significance was evaluated using a Student's t-test using Bonferroni correction (***p<0.001) in comparison to rVehicle;
(§1) Dextran sodium sulfate (DSS)-induced acute or chronic colitis mouse models were constructed using 6-week-old C57BL/6 female mice (Samtako, Osan, Korea). […] The survival of mice was tracked for 12 days, and mortality was measured for n=15 mice per group. […] The survival of mice was tracked for 9 weeks, and mortality was measured for n=15 mice per group. […]

[2] = system: DSS-induced chronic colitis; assay: DSS-induced chronic colitis mouse model; type: in vivo, C57BL/6 mice; details: 50 μg/kg i.p.
Method: FIG. 10 confirms an effect of rCT-NAMPT in mice with DSS-induced chronic colitis. Specifically, (A) Scheme of the chronic colitis model treated with rCT-NAMPT (50 μg/kg) and 3% DSS. (B) The survival of mice was tracked for 9 weeks, and mortality was calculated for n=15 mice per group. Statistical differences between rVehicle treated animals were recorded (log-rank test). […] (C) Weight loss of rVehicle, rCT or rCT-NAMPT treatment in mice was confirmed (n=15). (D) Image (upper) and length (lower) of colon in 3% DSS-induced chronic colitis mice with rVehicle, rCT or rCT-NAMPT. (E) H&E staining of the colon (left) (n=8): a representative image. H&E staining was used to evaluate histopathology scores in 3% DSS-induced chronic colitis mice treated with rVehicle, rCT, or rCT-NAMPT. […]
as §1
Body weight, degree of bloody stool, and stool concentration were measured every day during the colitis induction to obtain the clinical score. The clinical score was determined by two trained investigators who were not provided with information about the experiment. […]

Sequence: TWYKIAFQRNRK [rCT]
- tissue targeting (colon versus other organs) (colonic tissues): specifically targeted colonic tissues in mice with acute colitis, but not in other organs
- survival rate / mortality ([1]; 3% DSS, 50 μg/kg i.p. 8 times, 12 days): Neither rVehicle or rCT significantly affected mortality
- colon histology (H&E staining) ([1]; DSS): disrupted by DSS
- body weights [2]: Body weights fluctuated
